Reference: patent publication US9458153B2, “Dihydroquinolizinones for the treatment and prophylaxis of hepatitis B virus infection” (Hoffmann-La Roche Inc., priority 2014, dated 2016)

The molecules below were run on HBsAg (assay: HBsAg assay (chemiluminescence immunoassay of secreted HBsAg in HepG2.2.15 culture supernatant)). Conditions: HBsAg secretion reduced by 50% vs no drug control; HepG2.2.15 cells; CLIA kit.
Format: cell-based, HBV
Method in brief: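 IC50 came from dose-response curves of HBsAg in culture supernatant, measured semi-quantitatively by chemiluminescent immunoassay. The HBV-producing HepG2.2.15 line was dosed in duplicate with a three-fold compound dilution series, with DMSO at 1% final and DMSO alone as the no-drug control.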

CCC1Cc2cc(OCC(C)(C)CO)c(OC)cc2-c2cc(=O)c(C(=O)O)cn21 (stereo not drawn) [Example 22, 6-ethyl-9-(3-hydroxy-2,2-dimethyl-propoxy)-10-methoxy-2-oxo-6,7-dihydrobenzo[a]quinolizine-3-carboxylic acid] was tested. Which IC50 did it give?
The IC50 was 0.039 µM.

Which IC50 does the source give for CCC1Cc2cc(OCCOC)c(OC)cc2-c2cc(=O)c(C(=O)O)cn21 (stereo not drawn) [Example 27, 6-ethyl-10-methoxy-9-(2-methoxyethoxy)-2-oxo-6,7-dihydrobenzo[a]quinolizine-3-carboxylic acid] here?
The IC50 was 0.056 µM.

For CCOc1cc2c(cc1OC)-c1cc(=O)c(C(=O)O)cn1C(CC)C2 (stereo not drawn) [Example 36, 9-ethoxy-6-ethyl-10-methoxy-2-oxo-6,7-dihydrobenzo[a]quinolizine-3-carboxylic acid], which IC50 is on record?
Its IC50 is 0.053 µM.

With CCC1Cc2cc(OCCCOC)c(OC)cc2-c2cc(=O)c(C(=O)O)cn21 (stereo not drawn) [Example 39, 6-ethyl-10-methoxy-9-(3-methoxypropoxy)-2-oxo-6,7-dihydrobenzo[a]quinolizine-3-carboxylic acid] as the molecule, how does the IC50 read?
Its IC50 is 0.016 µM.

For CCOCCOc1cc2c(cc1OC)-c1cc(=O)c(C(=O)O)cn1C(CC)C2 (stereo not drawn) [Example 42, 9-(2-ethoxyethoxy)-6-ethyl-10-methoxy-2-oxo-6,7-dihydrobenzo[a]quinolizine-3-carboxylic acid], which IC50 is on record?
Its IC50 is 0.057 µM.

How did the IC50 turn out when CCC1Cc2cc(OCC(F)F)c(OC)cc2-c2cc(=O)c(C(=O)O)cn21 (stereo not drawn) [Example 45, 9-(2,2-difluoroethoxy)-6-ethyl-10-methoxy-2-oxo-6,7-dihydrobenzo[a]quinolizine-3-carboxylic acid] was run?
The IC50 was 0.104 µM.

Which IC50 does the source give for CCC1Cc2cc(OCC3CCOCC3)c(OC)cc2-c2cc(=O)c(C(=O)O)cn21 (stereo not drawn) [Example 48, 6-ethyl-10-methoxy-2-oxo-9-(tetrahydropyran-4-ylmethoxy)-6,7-dihydrobenzo[a]quinolizine-3-carboxylic acid] here?
Its IC50 is 0.024 µM.

With COc1cc2c(cc1OC)-c1cc(=O)c(C(=O)O)cn1C(C)C2 (stereo not drawn) [Example 66, 9,10-dimethoxy-6-methyl-2-oxo-6,7-dihydrobenzo[a]quinolizine-3-carboxylic acid] as the molecule, how does the IC50 read?
Its IC50 is 0.43 µM.

With CCC1Cc2cc(OC)c(C3CC3)cc2-c2cc(=O)c(C(=O)O)cn21 (stereo not drawn) [Example 89, 10-cyclopropyl-6-ethyl-9-methoxy-2-oxo-6,7-dihydrobenzo[a]quinolizine-3-carboxylic acid] as the molecule, how does the IC50 read?
Its IC50 is 0.008 µM.

Same assay, conditions: Hepatitis B virus, HepG2.2.15, HBsAg secretion reduced by 50% vs no drug control; HepG2.2.15 cells; CLIA kit

For CCC1Cc2cc(OCCCO)c(OC)cc2-c2cc(=O)c(C(=O)O)cn21 (stereo not drawn) [Example 25, 6-ethyl-9-(3-hydroxypropoxy)-10-methoxy-2-oxo-6,7-dihydrobenzo[a]quinolizine-3-carboxylic acid], which IC50 is on record?
Its IC50 is 0.155 µM.

CCC1Cc2cc(OCCn3ccnc3)c(OC)cc2-c2cc(=O)c(C(=O)O)cn21 (stereo not drawn) [Example 26, 6-ethyl-9-(2-imidazol-1-ylethoxy)-10-methoxy-2-oxo-6,7-dihydrobenzo[a]quinolizine-3-carboxylic acid] was tested. Which IC50 did it give?
The IC50 was 1.65 µM.

With CCC1Cc2cc(OCCN3CCCC3)c(OC)cc2-c2cc(=O)c(C(=O)O)cn21 (stereo not drawn) [Example 51, 6-ethyl-10-methoxy-2-oxo-9-(2-pyrrolidin-1-ylethoxy)-6,7-dihydrobenzo[a]quinolizine-3-carboxylic acid] as the molecule, how does the IC50 read?
Its IC50 is 3.9 µM.

CCC1Cc2cc(OCCCC#N)c(OC)cc2-c2cc(=O)c(C(=O)O)cn21 (stereo not drawn) [Example 52, 9-(3-cyanopropoxy)-6-ethyl-10-methoxy-2-oxo-6,7-dihydrobenzo[a]quinolizine-3-carboxylic acid] was tested. Which IC50 did it give?
The IC50 was 0.17 µM.

CCC1Cc2cc(OCCS(C)(=O)=O)c(OC)cc2-c2cc(=O)c(C(=O)O)cn21 (stereo not drawn) [Example 53, 6-ethyl-10-methoxy-9-(2-methylsulfonylethoxy)-2-oxo-6,7-dihydrobenzo[a]quinolizine-3-carboxylic acid] was tested. Which IC50 did it give?
Its IC50 is 1.54 µM.

Which IC50 does the source give for CCC1Cc2cc(OCCN3CCCC3=O)c(OC)cc2-c2cc(=O)c(C(=O)O)cn21 (stereo not drawn) [Example 54, 6-ethyl-10-methoxy-2-oxo-9-[2-(2-oxopyrrolidin-1-yl)ethoxy]-6,7-dihydrobenzo[a]quinolizine-3-carboxylic acid] here?
Its IC50 is 0.13 µM.

Which IC50 does the source give for CC[C@@H]1Cc2cc(OCCN3CCCC3=O)c(OC)cc2-c2cc(=O)c(C(=O)O)cn21 [Example 55, (+)-6-ethyl-10-methoxy-2-oxo-9-[2-(2-oxopyrrolidin-1-yl)ethoxy]-6,7-dihydrobenzo[a]quinolizine-3-carboxylic acid] here?
Its IC50 is 0.72 µM.

How did the IC50 turn out when CCC1Cc2cc(OCCNS(C)(=O)=O)c(OC)cc2-c2cc(=O)c(C(=O)O)cn21 (stereo not drawn) [Example 56, 6-ethyl-9-[2-(methanesulfonamido)ethoxy]-10-methoxy-2-oxo-6,7-dihydrobenzo[a]quinolizine-3-carboxylic acid] was run?
The IC50 was 3.3 µM.

How did the IC50 turn out when CCC1Cc2cc(OCC3(C#N)CC3)c(OC)cc2-c2cc(=O)c(C(=O)O)cn21 (stereo not drawn) [Example 57, 9-[(1-cyanocyclopropyl)methoxy]-6-ethyl-10-methoxy-2-oxo-6,7-dihydrobenzo[a]quinolizine-3-carboxylic acid] was run?
The IC50 was 0.17 µM.

With CC1Cc2cccc(Br)c2-c2cc(=O)c(C(=O)O)cn21 (stereo not drawn) [Example 60, 11-bromo-6-methyl-2-oxo-6,7-dihydrobenzo[a]quinolizine-3-carboxylic acid] as the molecule, how does the IC50 read?
The IC50 was 1.24 µM.

With C[C@@H]1Cc2cc(Br)ccc2-c2cc(=O)c(C(=O)O)cn21 [Example 61, (+)-9-bromo-6-methyl-2-oxo-6,7-dihydrobenzo[a]quinolizine-3-carboxylic acid] as the molecule, how does the IC50 read?
The IC50 was 6.02 µM.

How did the IC50 turn out when CC1Cc2cc(N3CCN(C(=O)OC(C)(C)C)CC3)ccc2-c2cc(=O)c(C(=O)O)cn21 (stereo not drawn) [Example 62, 9-(4-tert-butoxycarbonylpiperazin-1-yl)-6-methyl-2-oxo-6,7-dihydrobenzo[a]quinolizine-3-carboxylic acid] was run?
Its IC50 is 0.99 µM.

CC1Cc2cc(N(C)Cc3ccccc3)ccc2-c2cc(=O)c(C(=O)O)cn21 (stereo not drawn) [Example 63, 9-[benzyl(methyl)amino]-6-methyl-2-oxo-6,7-dihydrobenzo[a]quinolizine-3-carboxylic acid] was tested. Which IC50 did it give?
The IC50 was 7.18 µM.

Which IC50 does the source give for CNc1cccc2c1-c1cc(=O)c(C(=O)O)cn1C(C)C2 (stereo not drawn) [Example 64, 6-methyl-11-(methylamino)-2-oxo-6,7-dihydrobenzo[a]quinolizine-3-carboxylic acid] here?
The IC50 was 24.9 µM.

COc1cc2c(cc1Cl)-c1cc(=O)c(C(=O)O)cn1C(C)C2 (stereo not drawn) [Example 65, 10-chloro-9-methoxy-6-methyl-2-oxo-6,7-dihydrobenzo[a]quinolizine-3-carboxylic acid] was tested. Which IC50 did it give?
Its IC50 is 0.32 µM.

COc1cc2c(cc1OC)C(C)Cn1cc(C(=O)O)c(=O)cc1-2 (stereo not drawn) [Example 69, 9,10-dimethoxy-7-methyl-2-oxo-6,7-dihydrobenzo[a]quinolizine-3-carboxylic acid] was tested. Which IC50 did it give?
Its IC50 is 1.3 µM.

How did the IC50 turn out when CCC1Cc2cc(OC)c(OC)cc2-c2cc(=O)c(C(=O)O)cn21 (stereo not drawn) [Example 70, 6-ethyl-9,10-dimethoxy-2-oxo-6,7-dihydrobenzo[a]quinolizine-3-carboxylic acid] was run?
The IC50 was 0.07 µM.

How did the IC50 turn out when CC[C@@H]1Cc2cc(OC)c(OC)cc2-c2cc(=O)c(C(=O)O)cn21 [Example 71, (6R)-(+)-6-ethyl-9,10-dimethoxy-2-oxo-6,7-dihydrobenzo[a]quinolizine-3-carboxylic acid] was run?
The IC50 was 0.037 µM.

Which IC50 does the source give for CC[C@H]1Cc2cc(OC)c(OC)cc2-c2cc(=O)c(C(=O)O)cn21 [Example 72, (6S)-(−)-6-ethyl-9,10-dimethoxy-2-oxo-6,7-dihydrobenzo[a]quinolizine-3-carboxylic acid] here?
The IC50 was 12 µM.

Which IC50 does the source give for COc1cc2c(cc1C)-c1cc(=O)c(C(=O)O)cn1C(C)C2 (stereo not drawn) [Example 73, 9-methoxy-6,10-dimethyl-2-oxo-6,7-dihydrobenzo[a]quinolizine-3-carboxylic acid] here?
Its IC50 is 0.14 µM.

With CCOc1cc2c(cc1OCC)-c1cc(=O)c(C(=O)O)cn1C(C)C2 (stereo not drawn) [Example 74, 9,10-diethoxy-6-methyl-2-oxo-6,7-dihydrobenzo[a]quinolizine-3-carboxylic acid] as the molecule, how does the IC50 read?
Its IC50 is 0.14 µM.

With CCOc1cc2c(cc1O)-c1cc(=O)c(C(=O)O)cn1C(C)C2 (stereo not drawn) [Example 75, 9-ethoxy-6-methyl-10-hydroxy-2-oxo-6,7-dihydrobenzo[a]quinolizine-3-carboxylic acid] as the molecule, how does the IC50 read?
The IC50 was 1.11 µM.

Which IC50 does the source give for CCCOc1cc2c(cc1OCCC)-c1cc(=O)c(C(=O)O)cn1CC2 [Example 77, 2-oxo-9,10-dipropoxy-6,7-dihydrobenzo[a]quinolizine-3-carboxylic acid] here?
The IC50 was 0.83 µM.

With CCCc1cc2c(cc1OC)-c1cc(=O)c(C(=O)O)cn1C(CC)C2 (stereo not drawn) [Example 81, 6-ethyl-10-methoxy-2-oxo-9-propyl-6,7-dihydrobenzo[a]quinolizine-3-carboxylic acid] as the molecule, how does the IC50 read?
Its IC50 is 0.33 µM.

Which IC50 does the source give for COc1ccc2c(c1Cl)CC(C)n1cc(C(=O)O)c(=O)cc1-2 (stereo not drawn) [Example 82, 8-chloro-9-methoxy-6-methyl-2-oxo-6,7-dihydrobenzo[a]quinolizine-3-carboxylic acid] here?
The IC50 was 5.27 µM.

COc1cc2c(c(Cl)c1OC)CC(C)n1cc(C(=O)O)c(=O)cc1-2 (stereo not drawn) [Example 83, 8-chloro-9,10-dimethoxy-6-methyl-2-oxo-6,7-dihydrobenzo[a]quinolizine-3-carboxylic acid] was tested. Which IC50 did it give?
Its IC50 is 5.6 µM.

With CCCOc1cc2c(cc1OC)CC(C)n1cc(C(=O)O)c(=O)cc1-2 (stereo not drawn) [Example 87, 9-methoxy-6-methyl-2-oxo-10-propoxy-6,7-dihydrobenzo[a]quinolizine-3-carboxylic acid] as the molecule, how does the IC50 read?
The IC50 was 1.55 µM.

CCc1cc2c(cc1OC)CC(CC)n1cc(C(=O)O)c(=O)cc1-2 (stereo not drawn) [Example 88, 6,10-diethyl-9-methoxy-2-oxo-6,7-dihydrobenzo[a]quinolizine-3-carboxylic acid] was tested. Which IC50 did it give?
The IC50 was 0.02 µM.

Which IC50 does the source give for CCC1Cc2cc(Br)c(OC)cc2-c2cc(=O)c(C(=O)O)cn21 (stereo not drawn) [Example 92, 9-bromo-6-ethyl-10-methoxy-2-oxo-6,7-dihydrobenzo[a]quinolizine-3-carboxylic acid] here?
Its IC50 is 0.23 µM.

How did the IC50 turn out when CCC1Cc2cc(C#N)c(OC)cc2-c2cc(=O)c(C(=O)O)cn21 (stereo not drawn) [Example 93, 9-cyano-6-ethyl-10-methoxy-2-oxo-6,7-dihydrobenzo[a]quinolizine-3-carboxylic acid] was run?
The IC50 was 0.19 µM.
